The source of these data is patent US12312359B2 (Vitae Pharmaceuticals, LLC, priority 2016, dated 2025).

A short description of data set [1]: Water activity analysis (slurries) of sesquifumaric acid salt forms. In kind it is physicochemical. Conditions: for Result (solid form after water activity slurry): ambient, 7 days.
The target of data set [2] is T1, biotinylated wild-type menin and MLL-AF9 fusion protein (menin/MLL binding) (Homo sapiens, UniProt O00255).
T1 construct: made in house; host or cells: menin: E. coli; MLL-AF9-FLAG: HEK293 cells, used as cleared lysate
T1 sequence (O00255 1-610): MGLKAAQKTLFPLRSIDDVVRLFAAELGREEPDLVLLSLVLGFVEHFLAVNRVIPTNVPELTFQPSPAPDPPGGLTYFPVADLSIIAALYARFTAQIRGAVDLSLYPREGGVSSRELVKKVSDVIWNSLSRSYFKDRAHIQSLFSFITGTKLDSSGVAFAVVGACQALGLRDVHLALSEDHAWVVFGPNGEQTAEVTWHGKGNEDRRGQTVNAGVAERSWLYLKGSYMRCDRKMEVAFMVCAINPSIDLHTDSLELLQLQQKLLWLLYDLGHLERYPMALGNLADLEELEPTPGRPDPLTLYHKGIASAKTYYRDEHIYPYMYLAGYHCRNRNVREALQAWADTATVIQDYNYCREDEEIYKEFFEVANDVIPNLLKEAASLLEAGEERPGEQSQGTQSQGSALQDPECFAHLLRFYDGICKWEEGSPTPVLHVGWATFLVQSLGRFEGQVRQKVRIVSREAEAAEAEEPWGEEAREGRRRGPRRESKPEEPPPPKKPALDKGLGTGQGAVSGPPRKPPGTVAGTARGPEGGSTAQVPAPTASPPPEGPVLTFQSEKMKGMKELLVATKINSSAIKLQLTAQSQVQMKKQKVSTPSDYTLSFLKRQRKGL
The data set is described as follows: Assay 1: menin/MLL binding AlphaLISA assay, wild-type menin. Conditions: Table 30; column head does not say wild-type or mutated menin. The method, boiled down:
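Compound was preincubated 30 min at room temperature with biotinylated menin (5 nM) and MLL-AF9-FLAG lysate from HEK293 cells, pH 7.4 buffer with 5% DMSO and DTT. Bead-based Alpha signal after 60 min with streptavidin donor and anti-FLAG acceptor beads; four-parameter logistic fit gave IC50.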

Data set [3] has as its system human acute monocytic leukemia cell line MV-4-11. In words: Assay 2: cell proliferation assay (ATP quantitation, CellTiter-Glo), MV-4-11. It counts as cell-based. As to conditions: Homo sapiens, MV4-11, 72 h, MV-4-11 cells. A digest of the protocol:
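Read-out is CellTiter-Glo luminescence quantifying ATP. Compound exposure lasted 72 h at 37° C., 5% CO2, with 1.67×10^4 MV-4-11 cells per well in 10% FBS medium, alongside HL-60 toxicity-control cells.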
On the technique in general: ATP-based viability assays read luminescence as a measure of living cells.

Data set [4] is described as follows: Physical stability analysis of sesquifumaric acid salt forms (drying, heating). In kind it is physicochemical.

The term IC50 denotes the point on the concentration scale where inhibition reaches its midpoint. By EC50 is commonly meant the concentration needed to bring the measured effect to its halfway point.

Take `CC(C)N(C(=O)c1cc(F)ccc1Oc1cncnc1N1CC2(CCN(CC3CCC(NS(C)(=O)=O)CC3)CC2)C1)C(C)C.CC(C)N(C(=O)c1cc(F)ccc1Oc1cncnc1N1CC2(CCN(CC3CCC(NS(C)(=O)=O)CC3)CC2)C1)C(C)C.O=C(O)/C=C/C(=O)O.O=C(O)/C=C/C(=O)O.O=C(O)/C=C/C(=O)O` (stereo not drawn): the “Result (solid form after water activity slurry)” value in data set [1] (H2O/ACN, water activity 0.38 (2 vol % H2O)) is reported as “Form A”; in data set [1] (H2O/ACN, water activity 0.60 (4 vol % H2O)), “Form A”; in data set [1] (H2O/IPA, water activity 0.50 (6 vol % H2O)), “Form A”; in data set [1] (H2O/IPA, water activity 0.70 (11 vol % H2O)), “Form A”; in data set [1] (H2O/IPA, water activity 0.96 (50 vol % H2O)), “Form A”; in data set [1] (H2O/acetone, water activity 0.22 (1 vol % H2O)), “Form A”. Further, the “Result (solid form after water activity slurry)” value in data set [1] (H2O/acetone, water activity 0.44 (3 vol % H2O)) is “Form A”; in data set [1] (H2O/acetone, water activity 0.80 (18 vol % H2O)), “Form A”; in data set [1] (H2O/acetone, water activity 0.91 (50 vol % H2O)), “Form A”.

In turn, `CC(C)CCc1cc(F)ccc1Oc1cncnc1N1CCC2(CCN(Cc3ccc4[nH]c(=O)[nH]c4c3)C2)C1` (stereo not drawn) [Example 235, 5-((7-(5-(4-fluoro-2-isopentylphenoxy)pyrimidin-4-yl)-2,7-diazaspiro[4.4]nonan-2-yl)methyl)-1,3-dihydro-2H-benzo[d]imidazol-2-one] gave a concentration for half-maximal inhibition (IC50) in data set [2] of less than 100 nM. The EC50 in data set [3] fell in the range of 100 to 1000 nM.

In turn, `CC(C)Cc1cc(F)ccc1Oc1cncnc1N1CCC2(CCN(Cc3ccc4[nH]c(=O)[nH]c4c3)C2)C1` (stereo not drawn) [Example 236, 5-((7-(5-(4-fluoro-2-isobutylphenoxy)pyrimidin-4-yl)-2,7-diazaspiro[4.4]nonan-2-yl)methyl)-1,3-dihydro-2H-benzo[d]imidazol-2-one] returned an IC50 in data set [2] of less than 100 nM. In addition, the concentration for a half-maximal effect (EC50) in data set [3] was in the range of 100 to 1000 nM.

On to `CC(C)n1nccc1-c1cc(F)ccc1Oc1cncnc1N1CCC2(CCN(Cc3ccc4[nH]c(=O)[nH]c4c3)C2)C1` (stereo not drawn) [Example 237, 5-((7-(5-(4-fluoro-2-(1-isopropyl-1H-pyrazol-5-yl)phenoxy)pyrimidin-4-yl)-2,7-diazaspiro[4.4]nonan-2-yl)methyl)-1,3-dihydro-2H-benzo[d]imidazol-2-one], for which the half-inhibitory concentration (IC50) in data set [2] is less than 100 nM. For the same molecule, the EC50 in data set [3] was less than 100 nM.

With `CC(C)c1ccccc1-c1cc(F)ccc1Oc1cncnc1N1CC2(CN(CC3CCOCC3)C2)C1` [Example 237A, 2-(5-((5-fluoro-2′-isopropyl-[1,1′-biphenyl]-2-yl)oxy)pyrimidin-4-yl)-6-((tetrahydro-2H-pyran-4-yl)methyl)-2,6-diazaspiro[3.3] heptane], the half-inhibitory concentration (IC50) in data set [2] was less than 100 nM. Moreover, the 50% effective concentration (EC50) in data set [3] is less than 100 nM.

`CCN(C(=O)c1cc(F)ccc1Oc1cncnc1N1CC2(CCN(C[C@H]3CC[C@H](NS(C)(=O)=O)CC3)CC2)C1)C(C)C` [Example 238, N-ethyl-5-fluoro-N-isopropyl-2-((4-(7-(((1r,4r)-4-(methylsulfonamido)cyclohexyl)methyl)-2,7-diazaspiro[3.5]nonan-2-yl)pyrimidin-5-yl)oxy)benzamide] came in with an IC50 in data set [2] of less than 100 nM. Besides, the half-maximal effective concentration (EC50) in data set [3] was less than 100 nM.

In the case of `CC(C)N(C(=O)c1cc(F)ccc1Oc1cncnc1N1CC2(CC(NC3CCOCC3)C2)C1)C(C)C` [Example 239, 5-fluoro-N,N-diisopropyl-2-((4-(6-((tetrahydro-2H-pyran-4-yl)amino)-2-azaspiro[3.3]heptan-2-yl)pyrimidin-5-yl)oxy)benzamide], the 50% inhibitory concentration (IC50) in data set [2] was less than 100 nM. Moreover, the half-maximal effective concentration (EC50) in data set [3] is less than 100 nM.

For the molecule `CC(C)N(C(=O)c1cc(F)ccc1Oc1cncnc1N1CC2(CC(N(C)C3CCOCC3)C2)C1)C(C)C` [Example 240, 5-fluoro-N,N-diisopropyl-2-((4-(6-(methyl(tetrahydro-2H-pyran-4-yl)amino)-2-azaspiro[3.3]heptan-2-yl)pyrimidin-5-yl)oxy)benzamide], the IC50 in data set [2] was less than 100 nM. Also, the EC50 in data set [3] is less than 100 nM.

`CC(C)N(C(=O)c1cc(F)ccc1Nc1cncnc1N1CCC2(CC1)CN(C[C@H]1CC[C@H](NC(=O)OC(C)(C)C)CC1)C2)C(C)C` [Example 241, tert-butyl ((1r,4r)-4-((7-(5-((2-(diisopropylcarbamoyl)-4-fluorophenyl)amino)pyrimidin-4-yl)-2,7-diazaspiro [3.5]nonan-2-yl)methyl)cyclohexyl) carbamate] came in with an IC50 in data set [2] of less than 100 nM. Also, in data set [3], the concentration giving a half-maximal response (EC50) is 100 to 1000 nM.

Consider `CC(C)c1ccccc1-c1cc(F)ccc1Nc1cncnc1N1CC2(CN(CC3(O)CCCCC3)C2)C1` [Example 242, 1-((6-(5-((5-fluoro-2′-isopropyl-[1,1′-biphenyl]-2-yl)amino)pyrimidin-4-yl)-2,6-diazaspiro [3.3]heptan-2-yl)methyl) cyclohexan-1-ol], for which the IC50 in data set [2] is less than 100 nM. For the same molecule, in data set [3], the EC50 fell in the range of 100 to 1000 nM.

Consider `CC(C)c1ccccc1-c1cc(F)ccc1Oc1cnccc1N1CCC2(CCN(Cc3ccc4[nH]c(=O)[nH]c4c3)C2)C1` (stereo not drawn) [Example 249, 5-((7-(3-((5-fluoro-2′-isopropyl-[1,1′-biphenyl]-2-yl)oxy)pyridin-4-yl)-2,7-diazaspiro[4.4]nonan-2-yl)methyl)-1,3-dihydro-2H-benzo[d]imidazol-2-one], for which the IC50 in data set [2] is less than 100 nM. Besides, the EC50 in data set [3] was 100 to 1000 nM.

Molecule `CC(=O)Nc1ccc(CN2C(=O)C3(CCN(c4ncncc4Oc4ccc(F)cc4C(=O)N(C)C(C)C)C3)N=C2N)cc1` (stereo not drawn) [Example 251, 2-((4-(3-(4-acetamidobenzyl)-2-amino-4-oxo-1,3,7-triazaspiro[4.4]non-1-en-7-yl)pyrimidin-5-yl)oxy)-5-fluoro-N-isopropyl-N-methylbenzamide] registered an IC50 in data set [2] of less than 100 nM. In data set [3], this molecule showed an EC50 not below 1000 nM.

`CCN(C(=O)c1cc(F)ccc1Oc1cncnc1N1CC2(CCN(C[C@H]3CC[C@H](NS(=O)(=O)CC)CC3)CC2)C1)C(C)C` [Example 252, N-Ethyl-2-((4-(7-(((1r,4r)-4-(ethylsulfonamido)cyclohexyl)methyl)-2,7-diazaspiro[3.5]nonan-2-yl)pyrimidin-5-yl)oxy)-5-fluoro-N-isopropylbenzamide] gave an IC50 in data set [2] of less than 100 nM. The molecule further showed an EC50 in data set [3] of less than 100 nM.

Consider `CC(C)N(C(=O)c1cc(F)ccc1Oc1cncnc1N1CC2(CCN(C[C@H]3CC[C@H](NS(C)(=O)=O)CC3)CC2)C1)C(C)C.CC(C)N(C(=O)c1cc(F)ccc1Oc1cncnc1N1CC2(CCN(C[C@H]3CC[C@H](NS(C)(=O)=O)CC3)CC2)C1)C(C)C.O=C(O)/C=C/C(=O)O.O=C(O)/C=C/C(=O)O.O=C(O)/C=C/C(=O)O` [Form E, 5-fluoro-N,N-diisopropyl-2-((4-(7-(((1r,4r)-4-(methylsulfonamido)cyclohexyl)methyl)-2,7-diazaspiro[3.5]nonan-2-yl)pyrimidin-5-yl)oxy)benzamide sesquifumaric acid salt], for which, in data set [4] (45° C. vacuum oven), the “Form change after 45° C. vacuum oven” value is on record as “No changes observed in XRPD”. Besides, in data set [4] (45° C. vacuum, 1 day), the “Result (solid form after physical stability stress)” value is given as “Form E”.

Regarding `CC(C)N(C(=O)c1cc(F)ccc1Oc1cncnc1N1CC2(CCN(C[C@H]3CC[C@H](NS(C)(=O)=O)CC3)CC2)C1)C(C)C.CC(C)N(C(=O)c1cc(F)ccc1Oc1cncnc1N1CC2(CCN(C[C@H]3CC[C@H](NS(C)(=O)=O)CC3)CC2)C1)C(C)C.O=C(O)/C=C/C(=O)O.O=C(O)/C=C/C(=O)O.O=C(O)/C=C/C(=O)O` [Form F, 5-fluoro-N,N-diisopropyl-2-((4-(7-(((1r,4r)-4-(methylsulfonamido)cyclohexyl)methyl)-2,7-diazaspiro[3.5]nonan-2-yl)pyrimidin-5-yl)oxy)benzamide sesquifumaric acid salt], the “Form conversion when slurried in ACN/water mixture” value in data set [1] (slurried in ACN/water mixture) was “Conversion to Form A was observed”.
